Laboratory results reported in BindingDB's records for doi:10.1016/j.bmcl.2004.05.028 (Gsk, 2004).

Target: Transient receptor potential cation channel subfamily V member 1 (Homo sapiens, UniProt Q8NER1)
Experiment: FLIPR (Fluorescence Imaging Plate Reader)-Based Ca2+ Assay
Conditions: pH 7.2; 25 °C
Protocol: One day before the assay was performed, human TRPV1 expressed in 1321N1 astrocytoma cells were plated onto 96-well assay plates and grown until 2.5 h before the assay, and the cells were loaded with the Ca2+ reporter dye Fluo3-AM for 2 h at room temperature. After this, the cells were washed, and continuously being incubated for 30 min with medium containing test compounds at a range of different concentrations.

Sequence of Transient receptor potential cation channel subfamily V member 1 (Q8NER1 whole entry): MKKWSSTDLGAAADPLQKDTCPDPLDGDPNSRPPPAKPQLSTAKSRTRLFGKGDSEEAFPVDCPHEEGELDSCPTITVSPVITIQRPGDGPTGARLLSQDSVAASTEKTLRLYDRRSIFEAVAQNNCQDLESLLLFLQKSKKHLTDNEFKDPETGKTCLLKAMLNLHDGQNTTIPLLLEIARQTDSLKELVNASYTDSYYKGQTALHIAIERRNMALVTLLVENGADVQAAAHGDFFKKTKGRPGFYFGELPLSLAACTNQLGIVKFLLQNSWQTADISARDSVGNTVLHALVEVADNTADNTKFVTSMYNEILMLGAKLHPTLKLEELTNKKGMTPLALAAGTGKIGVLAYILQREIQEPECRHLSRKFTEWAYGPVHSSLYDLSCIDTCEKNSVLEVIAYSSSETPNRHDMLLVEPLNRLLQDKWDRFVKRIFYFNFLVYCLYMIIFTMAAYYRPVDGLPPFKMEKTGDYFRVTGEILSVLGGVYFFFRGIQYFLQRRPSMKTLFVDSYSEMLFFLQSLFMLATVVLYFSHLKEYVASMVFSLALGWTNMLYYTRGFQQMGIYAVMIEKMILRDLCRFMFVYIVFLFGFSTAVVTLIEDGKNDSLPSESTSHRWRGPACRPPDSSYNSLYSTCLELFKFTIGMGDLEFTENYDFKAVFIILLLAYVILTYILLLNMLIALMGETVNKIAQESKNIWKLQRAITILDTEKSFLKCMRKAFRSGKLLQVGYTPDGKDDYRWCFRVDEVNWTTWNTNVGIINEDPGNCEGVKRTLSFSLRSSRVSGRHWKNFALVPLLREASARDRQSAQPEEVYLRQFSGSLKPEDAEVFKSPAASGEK

Structure (SMILES) | EC50
CCN(CCNC(=O)Nc1ccccc1Br)c1cccc(C)c1 [3-(2-bromophenyl)-1-{2-[ethyl(3-methylphenyl)amino]ethyl}urea] | 16 nM
COc1cccc(NC(=O)/C=C/c2ccc(Cl)cc2)c1 [(2E)-3-(4-chlorophenyl)-N-(3-methoxyphenyl)prop-2-enamide] | 20 nM
Oc1cc2c(cc1O)CN(C(=S)NCCc1ccc(Cl)cc1)CCC2 [N-[2-(4-chlorophenyl)ethyl]-7,8-dihydroxy-2,3,4,5-tetrahydro-1H-2-benzazepine-2-carbothioamide] | 32 nM
